In ChEMBL document CHEMBL3044639, “Synthesis and biologic activities of some novel heterocyclic chalcone derivatives” (Med Chem Res, 2013):
Calls of active or inactive are those of the source. No cut-off for these calls is given here.

Columns and labels:
Staphylococcus aureus [1] = assay: Antibacterial activity against Staphylococcus aureus 1199B overexpressing NorA assessed as reduction of ciprofloxacin MIC at MEC after 18 hr by broth checkerboard method relative to control; format: functional
Rattus norvegicus = assay: Anti-inflammatory activity in Wistar Rattus norvegicus (rat) assessed as inhibition of carrageenan-induced paw edema at 100 mg/kg, po administered 45 min prior to carrageenan-challenge measured 45 min to 4 hr post carrageenan-challenge relative to control; format: functional
[2] = tested on: Radical scavenging activity; assay: Antioxidant activity assessed as DPPH radical scavenging activity after 20 min by microplate ELISA reader analysis; format: functional
Staphylococcus aureus [3] = assay: Antibacterial activity against Staphylococcus aureus 1199B overexpressing NorA assessed as growth inhibition after 18 hr by broth checkerboard method; format: functional; settings: read-out: MEC
HL-60 = assay: Cytotoxicity against Homo sapiens (human) HL60 cells assessed as growth inhibition after 48 hr by MTT assay; format: functional, cell-based; settings: HL-60, 48 h
MOLT-4 = assay: Cytotoxicity against Homo sapiens (human) MOLT4 cells assessed as growth inhibition after 48 hr by MTT assay; format: functional, cell-based; settings: MOLT-4, 48 h
PC-3 = assay: Cytotoxicity against Homo sapiens (human) PC3 cells assessed as growth inhibition after 48 hr by MTT assay; format: functional, cell-based; settings: PC-3, 48 h
HeLa = assay: Cytotoxicity against Homo sapiens (human) HeLa cells assessed as growth inhibition after 48 hr by MTT assay; format: functional, cell-based

## O=C(/C=C/c1ccc2c(c1)OCO2)c1ccc[nH]1
Staphylococcus aureus [1]
  fold change (FC): 0
Rattus norvegicus
  inhibition: inactive
[2]
  Activity: inactive
Staphylococcus aureus [3]
  minimal effective concentration: > 50 µg/mL

## O=C(/C=C/c1ccccc1)c1ccco1
Staphylococcus aureus [1]
  fold change (FC): 0
Rattus norvegicus
  inhibition: inactive
[2]
  Activity: inactive
Staphylococcus aureus [3]
  minimal effective concentration: > 50 µg/mL
HL-60
  IC50: 100 µM
MOLT-4
  IC50: > 100 µM
PC-3
  IC50: > 100 µM
HeLa
  IC50: > 100 µM

## COc1cccc(OC)c1/C=C/C(=O)c1ccc[nH]1
Staphylococcus aureus [1]
  fold change (FC): 0
Rattus norvegicus
  inhibition: inactive
[2]
  Activity: inactive
Staphylococcus aureus [3]
  minimal effective concentration: > 50 µg/mL

## O=C(/C=C/c1cc([N+](=O)[O-])ccc1Cl)c1ccc[nH]1
Staphylococcus aureus [1]
  fold change (FC): 0
Rattus norvegicus
  inhibition: inactive
[2]
  Activity: inactive
Staphylococcus aureus [3]
  minimal effective concentration: > 50 µg/mL
HL-60
  IC50: 38 µM
MOLT-4
  IC50: 42 µM
PC-3
  IC50: 55 µM
HeLa
  IC50: 68 µM

## O=C(/C=C/c1cc([N+](=O)[O-])ccc1Cl)c1ccco1
Staphylococcus aureus [1]
  fold change (FC): 0
Rattus norvegicus
  inhibition: inactive
[2]
  Activity: inactive
Staphylococcus aureus [3]
  minimal effective concentration: > 50 µg/mL
HL-60
  IC50: 58 µM
MOLT-4
  IC50: 72 µM
PC-3
  IC50: 62 µM
HeLa
  IC50: > 100 µM

## O=C(/C=C/c1ccccc1Br)c1ccc[nH]1
Staphylococcus aureus [1]
  fold change (FC): 4
Rattus norvegicus
  inhibition: inactive
[2]
  Activity: inactive
Staphylococcus aureus [3]
  minimal effective concentration: 25 µg/mL
HL-60
  IC50: 42 µM
MOLT-4
  IC50: 38 µM
PC-3
  IC50: 44 µM
HeLa
  IC50: 44 µM

## COC(=O)[C@H]1[C@H]2C[C@@H]3c4[nH]c5cc(OC)ccc5c4CCN3C[C@H]2C[C@@H](OC(=O)c2cc(OC)c(OC)c(OC)c2)[C@@H]1OC [RESERPINE]
Staphylococcus aureus [1]
  fold change (FC): 0
Staphylococcus aureus [3]
  minimal effective concentration: 25 µg/mL

## O=C(/C=C/c1cccc([N+](=O)[O-])c1)c1ccco1
Staphylococcus aureus [1]
  fold change (FC): 0
Rattus norvegicus
  inhibition: inactive
[2]
  Activity: inactive
Staphylococcus aureus [3]
  minimal effective concentration: > 50 µg/mL
HL-60
  IC50: 14 µM
MOLT-4
  IC50: 18 µM
PC-3
  IC50: 14 µM
HeLa
  IC50: 22 µM

## COc1ccc(CCN(C)CCCC(C#N)(c2ccc(OC)c(OC)c2)C(C)C)cc1OC (centres undefined) [VERAPAMIL]
Staphylococcus aureus [1]
  fold change (FC): 2
Staphylococcus aureus [3]
  minimal effective concentration: 50 µg/mL

## O=C(/C=C/c1ccccc1Br)c1ccco1
Staphylococcus aureus [1]
  fold change (FC): 0
Rattus norvegicus
  inhibition: inactive
[2]
  Activity: inactive
Staphylococcus aureus [3]
  minimal effective concentration: > 50 µg/mL

## O=C(/C=C/c1ccc([N+](=O)[O-])cc1)c1ccco1
Staphylococcus aureus [1]
  fold change (FC): 0
Rattus norvegicus
  inhibition: inactive
[2]
  Activity: inactive
Staphylococcus aureus [3]
  minimal effective concentration: > 50 µg/mL

## COc1cccc(/C=C/C(=O)c2ccc[nH]2)c1OC
Staphylococcus aureus [1]
  fold change (FC): 4
Rattus norvegicus
  inhibition: inactive
[2]
  Activity: inactive
Staphylococcus aureus [3]
  minimal effective concentration: 25 µg/mL

## COc1ccc(/C=C/C(=O)c2ccco2)cc1OC
Staphylococcus aureus [1]
  fold change (FC): 0
Rattus norvegicus
  inhibition in vivo at 100 mg/kg: 23%
[2]
  Activity: inactive
Staphylococcus aureus [3]
  minimal effective concentration: > 50 µg/mL

## O=C(/C=C/c1ccc(Cl)cc1Cl)c1ccc[nH]1
Staphylococcus aureus [1]
  fold change (FC): 0
Rattus norvegicus
  inhibition: inactive
[2]
  Activity: inactive
Staphylococcus aureus [3]
  minimal effective concentration: > 50 µg/mL
HL-60
  IC50: 22 µM
MOLT-4
  IC50: 13 µM
PC-3
  IC50: 22 µM
HeLa
  IC50: 26 µM

## O=C(/C=C/c1c(Cl)cccc1Cl)c1ccc[nH]1
Staphylococcus aureus [1]
  fold change (FC): 0
Rattus norvegicus
  inhibition: inactive
[2]
  Activity: inactive
Staphylococcus aureus [3]
  minimal effective concentration: > 50 µg/mL

## COc1ccc(OC)c(/C=C/C(=O)c2ccco2)c1
Staphylococcus aureus [1]
  fold change (FC): 0
Rattus norvegicus
  inhibition: inactive
[2]
  Activity: inactive
Staphylococcus aureus [3]
  minimal effective concentration: > 50 µg/mL

## CN(C)c1ccc(/C=C/C(=O)c2ccco2)cc1
Staphylococcus aureus [1]
  fold change (FC): 4
Rattus norvegicus
  inhibition: inactive
[2]
  Activity: inactive
Staphylococcus aureus [3]
  minimal effective concentration: 12.5 µg/mL
HL-60
  IC50: 12 µM
MOLT-4
  IC50: 12 µM
PC-3
  IC50: 13 µM
HeLa
  IC50: 20 µM

## COc1ccc(/C=C/C(=O)c2ccc[nH]2)cc1OC
Staphylococcus aureus [1]
  fold change (FC): 0
Rattus norvegicus
  inhibition: inactive
[2]
  Activity: inactive
Staphylococcus aureus [3]
  minimal effective concentration: > 50 µg/mL

## COc1cccc(/C=C/C(=O)c2ccc[nH]2)c1
Staphylococcus aureus [1]
  fold change (FC): 0
Rattus norvegicus
  inhibition: inactive
[2]
  Activity: inactive
Staphylococcus aureus [3]
  minimal effective concentration: > 50 µg/mL
HL-60
  IC50: 16 µM
MOLT-4
  IC50: 28 µM
PC-3
  IC50: 24 µM
HeLa
  IC50: 30 µM
